Reference: ChEMBL document CHEMBL4507284, “Data for DCP probe BI-1230” (2021)

Key:
[1] = molecular target: Serine/threonine-protein kinase pim-3 (Homo sapiens) (UniProt Q86V86); conditions: Compound concentration 1000.0 nM
[2] = molecular target: Protein-tyrosine kinase 6 (Homo sapiens) (UniProt Q13882); conditions: Compound concentration 1000.0 nM
[3] = molecular target: 5-hydroxytryptamine receptor 5A (Homo sapiens) (UniProt P47898); conditions: Compound concentration 10.0 uM
[4] = molecular target: Ephrin type-B receptor 6 (Homo sapiens) (UniProt O15197); conditions: Compound concentration 1000.0 nM
[5] = system: ALK tyrosine kinase receptor (Homo sapiens), Q9UM73 [C1156Y]; conditions: Compound concentration 1000.0 nM
[6] = molecular target: cGMP-dependent protein kinase 2 (Homo sapiens) (UniProt Q13237); conditions: Compound concentration 1000.0 nM
[7] = molecular target: Serine/threonine-protein kinase Chk1 (Homo sapiens) (UniProt O14757); conditions: Compound concentration 1000.0 nM
[8] = molecular target: Tyrosine-protein kinase Mer (Homo sapiens) (UniProt Q12866); conditions: Compound concentration 1000.0 nM
[9] = molecular target: Phosphatidylinositol 3-kinase C2 domain-containing subunit gamma (Homo sapiens) (UniProt O75747); conditions: Compound concentration 1000.0 nM
[10] = molecular target: Calcium/calmodulin-dependent protein kinase kinase 2 (Homo sapiens) (UniProt Q96RR4); conditions: Compound concentration 1000.0 nM
[11] = molecular target: Serine/threonine-protein kinase SBK1 (Homo sapiens) (UniProt Q52WX2); conditions: Compound concentration 1000.0 nM
[12] = molecular target: Activated CDC42 kinase 1 (Homo sapiens) (UniProt Q07912); conditions: Compound concentration 1000.0 nM
[13] = molecular target: Activin receptor type-1B (Homo sapiens) (UniProt P36896); conditions: Compound concentration 1000.0 nM
[14] = molecular target: Calcium/calmodulin-dependent protein kinase type II subunit beta (Homo sapiens) (UniProt Q13554); conditions: Compound concentration 1000.0 nM
[15] = molecular target: Leukocyte tyrosine kinase receptor (Homo sapiens) (UniProt P29376); conditions: Compound concentration 1000.0 nM
[16] = molecular target: Cyclin-dependent kinase 4 (Homo sapiens) (UniProt P11802); conditions: Compound concentration 1000.0 nM
[17] = molecular target: Serine/threonine-protein kinase 32B (Homo sapiens) (UniProt Q9NY57); conditions: Compound concentration 1000.0 nM
[18] = molecular target: Mitogen-activated protein kinase 15 (Homo sapiens) (UniProt Q8TD08); conditions: Compound concentration 1000.0 nM
[19] = molecular target: Serine/threonine-protein kinase TNNI3K (Homo sapiens) (UniProt Q59H18); conditions: Compound concentration 1000.0 nM
[20] = molecular target: Peripheral plasma membrane protein CASK (Homo sapiens) (UniProt O14936); conditions: Compound concentration 1000.0 nM
[21] = molecular target: Epithelial discoidin domain-containing receptor 1 (Homo sapiens) (UniProt Q08345); conditions: Compound concentration 1000.0 nM
[22] = molecular target: Dual specificity protein kinase TTK (Homo sapiens) (UniProt P33981); conditions: Compound concentration 1000.0 nM
[23] = molecular target: Inhibitor of nuclear factor kappa-B kinase subunit epsilon (Homo sapiens) (UniProt Q14164); conditions: Compound concentration 1000.0 nM
[24] = molecular target: Phosphatidylinositol 5-phosphate 4-kinase type-2 gamma (Homo sapiens) (UniProt Q8TBX8); conditions: Compound concentration 1000.0 nM
[25] = molecular target: Dual specificity protein kinase CLK4 (Homo sapiens) (UniProt Q9HAZ1); conditions: Compound concentration 1000.0 nM
[26] = molecular target: Mitogen-activated protein kinase kinase kinase 7 (Homo sapiens) (UniProt O43318); conditions: Compound concentration 1000.0 nM
[27] = system: Phosphatidylinositol 4,5-bisphosphate 3-kinase catalytic subunit alpha isoform (Homo sapiens), P42336 [E542K]; conditions: Compound concentration 1000.0 nM
[28] = molecular target: Casein kinase I isoform gamma-3 (Homo sapiens) (UniProt Q9Y6M4); conditions: Compound concentration 1000.0 nM
[29] = system: Phosphatidylinositol 4,5-bisphosphate 3-kinase catalytic subunit alpha isoform (Homo sapiens), P42336 [M1043I]; conditions: Compound concentration 1000.0 nM
[30] = molecular target: Tyrosine-protein kinase ABL1 (Homo sapiens) (UniProt P00519); conditions: Compound concentration 1000.0 nM
[31] = molecular target: G protein-coupled receptor kinase 4 (Homo sapiens) (UniProt P32298); conditions: Compound concentration 1000.0 nM
[32] = molecular target: Muscarinic acetylcholine receptor M4 (Homo sapiens) (UniProt P08173); conditions: Compound concentration 10.0 uM
[33] = molecular target: Dual serine/threonine and tyrosine protein kinase (Homo sapiens) (UniProt Q6XUX3); conditions: Compound concentration 1000.0 nM
[34] = molecular target: Delta-type opioid receptor (Homo sapiens) (UniProt P41143); conditions: Compound concentration 10.0 uM
[35] = molecular target: NT-3 growth factor receptor (Homo sapiens) (UniProt Q16288); conditions: Compound concentration 1000.0 nM
[36] = system: Phosphatidylinositol 4,5-bisphosphate 3-kinase catalytic subunit alpha isoform (Homo sapiens), P42336 [I800L]; conditions: Compound concentration 1000.0 nM
[37] = molecular target: Ephrin type-A receptor 5 (Homo sapiens) (UniProt P54756); conditions: Compound concentration 1000.0 nM
[38] = molecular target: Mitogen-activated protein kinase kinase kinase kinase 4 (Homo sapiens) (UniProt O95819); conditions: Compound concentration 1000.0 nM
[39] = molecular target: Dual specificity protein kinase CLK1 (Homo sapiens) (UniProt P49759); conditions: Compound concentration 1000.0 nM
[40] = molecular target: cGMP-dependent protein kinase 1 (Homo sapiens) (UniProt Q13976); conditions: Compound concentration 1000.0 nM
[41] = molecular target: Hormonally up-regulated neu tumor-associated kinase (Homo sapiens) (UniProt P57058); conditions: Compound concentration 1000.0 nM
[42] = molecular target: Fibroblast growth factor receptor 4 (Homo sapiens) (UniProt P22455); conditions: Compound concentration 1000.0 nM
[43] = molecular target: Phosphorylase b kinase gamma catalytic chain, skeletal muscle/heart isoform (Homo sapiens) (UniProt Q16816); conditions: Compound concentration 1000.0 nM
[44] = molecular target: Serine/threonine-protein kinase D1 (Homo sapiens) (UniProt Q15139); conditions: Compound concentration 1000.0 nM
[45] = molecular target: Mitogen-activated protein kinase 1 (Homo sapiens) (UniProt P28482); conditions: Compound concentration 1000.0 nM

Chain of Casein kinase I isoform gamma-3 (Homo sapiens) (Q9Y6M4 whole entry, looked up, canonical isoform): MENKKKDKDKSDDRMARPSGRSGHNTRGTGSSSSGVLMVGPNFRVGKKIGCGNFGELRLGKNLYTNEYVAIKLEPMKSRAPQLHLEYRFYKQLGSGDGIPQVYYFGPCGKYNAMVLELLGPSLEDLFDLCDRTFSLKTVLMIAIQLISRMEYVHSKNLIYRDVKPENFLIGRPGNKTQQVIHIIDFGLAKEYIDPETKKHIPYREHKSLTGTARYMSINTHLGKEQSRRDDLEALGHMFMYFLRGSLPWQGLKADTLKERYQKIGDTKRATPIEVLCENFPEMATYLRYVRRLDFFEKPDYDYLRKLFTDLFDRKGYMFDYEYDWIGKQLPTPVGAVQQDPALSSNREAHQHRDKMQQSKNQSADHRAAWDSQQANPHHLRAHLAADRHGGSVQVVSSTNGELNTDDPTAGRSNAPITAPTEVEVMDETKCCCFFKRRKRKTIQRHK
Chain of Phosphatidylinositol 4,5-bisphosphate 3-kinase catalytic subunit alpha isoform (Homo sapiens), P42336 [I800L] (P42336 whole entry I800L, canonical isoform): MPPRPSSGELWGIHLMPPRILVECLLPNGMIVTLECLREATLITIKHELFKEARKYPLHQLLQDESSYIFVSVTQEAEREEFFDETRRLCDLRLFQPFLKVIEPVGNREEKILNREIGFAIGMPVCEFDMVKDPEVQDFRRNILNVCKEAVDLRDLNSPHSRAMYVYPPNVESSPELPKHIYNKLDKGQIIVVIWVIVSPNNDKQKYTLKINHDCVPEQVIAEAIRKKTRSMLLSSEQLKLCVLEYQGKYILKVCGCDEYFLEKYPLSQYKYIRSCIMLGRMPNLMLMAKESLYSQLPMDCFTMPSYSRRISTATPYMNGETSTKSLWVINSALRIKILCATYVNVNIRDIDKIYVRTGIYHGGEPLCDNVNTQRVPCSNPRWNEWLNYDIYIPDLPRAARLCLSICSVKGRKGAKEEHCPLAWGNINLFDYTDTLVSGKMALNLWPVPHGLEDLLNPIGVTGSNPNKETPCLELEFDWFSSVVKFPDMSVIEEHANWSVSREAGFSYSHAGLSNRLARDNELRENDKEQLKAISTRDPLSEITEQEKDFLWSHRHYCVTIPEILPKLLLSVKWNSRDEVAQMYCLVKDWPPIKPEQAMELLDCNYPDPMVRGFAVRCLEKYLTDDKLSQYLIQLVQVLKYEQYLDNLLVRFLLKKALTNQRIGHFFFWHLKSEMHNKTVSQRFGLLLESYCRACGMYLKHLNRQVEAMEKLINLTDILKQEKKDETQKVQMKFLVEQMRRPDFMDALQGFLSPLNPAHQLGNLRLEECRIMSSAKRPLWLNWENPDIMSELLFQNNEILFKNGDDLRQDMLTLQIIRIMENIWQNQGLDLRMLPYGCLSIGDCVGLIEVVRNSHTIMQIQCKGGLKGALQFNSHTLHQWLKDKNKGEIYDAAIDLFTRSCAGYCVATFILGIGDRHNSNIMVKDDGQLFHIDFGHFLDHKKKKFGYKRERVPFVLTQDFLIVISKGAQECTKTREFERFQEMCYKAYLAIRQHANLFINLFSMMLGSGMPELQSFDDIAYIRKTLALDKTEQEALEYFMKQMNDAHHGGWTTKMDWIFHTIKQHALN
Chain of cGMP-dependent protein kinase 1 (Homo sapiens) (Q13976 whole entry): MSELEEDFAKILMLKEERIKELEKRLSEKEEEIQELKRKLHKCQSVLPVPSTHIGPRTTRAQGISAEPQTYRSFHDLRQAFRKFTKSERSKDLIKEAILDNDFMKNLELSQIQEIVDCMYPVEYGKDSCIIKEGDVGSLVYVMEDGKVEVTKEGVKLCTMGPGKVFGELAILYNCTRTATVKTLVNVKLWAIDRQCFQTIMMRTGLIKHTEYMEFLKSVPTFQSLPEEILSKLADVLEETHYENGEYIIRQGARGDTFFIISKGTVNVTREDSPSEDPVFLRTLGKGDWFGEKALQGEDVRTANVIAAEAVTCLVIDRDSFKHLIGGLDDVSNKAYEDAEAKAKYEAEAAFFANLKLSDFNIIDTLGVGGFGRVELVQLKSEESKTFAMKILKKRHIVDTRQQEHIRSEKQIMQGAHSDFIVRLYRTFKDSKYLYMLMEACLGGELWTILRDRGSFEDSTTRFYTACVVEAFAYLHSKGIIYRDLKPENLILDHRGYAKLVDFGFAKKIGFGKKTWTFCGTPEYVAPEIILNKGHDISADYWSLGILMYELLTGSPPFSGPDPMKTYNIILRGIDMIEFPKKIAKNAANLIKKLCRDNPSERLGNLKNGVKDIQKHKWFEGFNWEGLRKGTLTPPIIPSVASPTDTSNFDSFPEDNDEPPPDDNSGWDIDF
Chain of Serine/threonine-protein kinase Chk1 (Homo sapiens) (O14757 whole entry): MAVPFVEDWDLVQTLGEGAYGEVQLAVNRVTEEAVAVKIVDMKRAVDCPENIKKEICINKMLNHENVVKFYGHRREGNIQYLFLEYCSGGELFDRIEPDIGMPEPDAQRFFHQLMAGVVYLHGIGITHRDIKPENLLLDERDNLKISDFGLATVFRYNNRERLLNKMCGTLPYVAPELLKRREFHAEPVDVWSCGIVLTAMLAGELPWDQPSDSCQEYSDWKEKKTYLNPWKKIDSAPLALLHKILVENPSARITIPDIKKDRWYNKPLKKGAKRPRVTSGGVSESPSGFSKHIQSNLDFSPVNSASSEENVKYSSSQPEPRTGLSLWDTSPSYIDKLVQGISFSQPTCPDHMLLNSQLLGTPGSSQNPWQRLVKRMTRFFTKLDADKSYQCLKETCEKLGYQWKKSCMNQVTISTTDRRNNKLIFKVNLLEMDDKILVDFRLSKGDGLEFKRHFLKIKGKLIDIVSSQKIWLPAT
Chain of Phosphatidylinositol 3-kinase C2 domain-containing subunit gamma (Homo sapiens) (O75747 whole entry, the tested form may be a part): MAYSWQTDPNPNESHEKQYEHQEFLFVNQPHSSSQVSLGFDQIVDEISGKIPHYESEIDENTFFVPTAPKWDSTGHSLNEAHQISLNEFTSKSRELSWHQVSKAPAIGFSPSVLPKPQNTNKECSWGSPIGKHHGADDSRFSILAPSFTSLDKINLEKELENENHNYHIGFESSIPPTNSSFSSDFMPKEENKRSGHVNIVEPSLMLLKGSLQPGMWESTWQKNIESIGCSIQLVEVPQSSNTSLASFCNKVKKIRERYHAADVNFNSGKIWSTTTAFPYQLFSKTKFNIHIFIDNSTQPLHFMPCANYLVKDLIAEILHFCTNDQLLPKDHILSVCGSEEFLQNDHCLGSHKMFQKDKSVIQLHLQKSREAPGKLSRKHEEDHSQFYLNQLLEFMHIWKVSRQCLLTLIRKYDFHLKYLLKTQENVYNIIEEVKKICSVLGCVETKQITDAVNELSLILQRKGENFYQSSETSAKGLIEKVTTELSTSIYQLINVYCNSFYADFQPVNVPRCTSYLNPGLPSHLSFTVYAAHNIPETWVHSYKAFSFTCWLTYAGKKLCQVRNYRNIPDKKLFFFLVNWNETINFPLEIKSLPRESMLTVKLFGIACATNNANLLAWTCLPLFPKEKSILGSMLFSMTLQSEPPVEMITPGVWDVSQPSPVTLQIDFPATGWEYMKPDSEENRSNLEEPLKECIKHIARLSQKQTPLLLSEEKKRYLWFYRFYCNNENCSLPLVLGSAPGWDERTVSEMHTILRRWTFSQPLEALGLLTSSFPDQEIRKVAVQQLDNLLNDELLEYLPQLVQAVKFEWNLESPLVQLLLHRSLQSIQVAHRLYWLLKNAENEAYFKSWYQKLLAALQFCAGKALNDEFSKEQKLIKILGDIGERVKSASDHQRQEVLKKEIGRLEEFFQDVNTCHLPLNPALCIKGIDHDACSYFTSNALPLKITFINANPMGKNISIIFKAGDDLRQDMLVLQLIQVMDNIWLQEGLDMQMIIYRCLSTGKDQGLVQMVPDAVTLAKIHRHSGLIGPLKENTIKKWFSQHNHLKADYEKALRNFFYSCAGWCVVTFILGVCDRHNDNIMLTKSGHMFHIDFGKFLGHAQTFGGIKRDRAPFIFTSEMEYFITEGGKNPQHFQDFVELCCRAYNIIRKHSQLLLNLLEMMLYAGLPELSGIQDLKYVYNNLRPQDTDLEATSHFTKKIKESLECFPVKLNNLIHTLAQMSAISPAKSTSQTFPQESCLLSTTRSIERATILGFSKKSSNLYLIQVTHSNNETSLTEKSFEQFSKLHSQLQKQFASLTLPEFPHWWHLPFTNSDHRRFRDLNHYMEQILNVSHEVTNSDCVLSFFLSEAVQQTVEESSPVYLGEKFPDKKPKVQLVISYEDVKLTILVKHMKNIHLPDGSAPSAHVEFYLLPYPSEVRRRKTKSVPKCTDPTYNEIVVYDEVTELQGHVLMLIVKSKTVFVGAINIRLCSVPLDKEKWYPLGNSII
Chain of G protein-coupled receptor kinase 4 (Homo sapiens) (P32298 whole entry, looked up): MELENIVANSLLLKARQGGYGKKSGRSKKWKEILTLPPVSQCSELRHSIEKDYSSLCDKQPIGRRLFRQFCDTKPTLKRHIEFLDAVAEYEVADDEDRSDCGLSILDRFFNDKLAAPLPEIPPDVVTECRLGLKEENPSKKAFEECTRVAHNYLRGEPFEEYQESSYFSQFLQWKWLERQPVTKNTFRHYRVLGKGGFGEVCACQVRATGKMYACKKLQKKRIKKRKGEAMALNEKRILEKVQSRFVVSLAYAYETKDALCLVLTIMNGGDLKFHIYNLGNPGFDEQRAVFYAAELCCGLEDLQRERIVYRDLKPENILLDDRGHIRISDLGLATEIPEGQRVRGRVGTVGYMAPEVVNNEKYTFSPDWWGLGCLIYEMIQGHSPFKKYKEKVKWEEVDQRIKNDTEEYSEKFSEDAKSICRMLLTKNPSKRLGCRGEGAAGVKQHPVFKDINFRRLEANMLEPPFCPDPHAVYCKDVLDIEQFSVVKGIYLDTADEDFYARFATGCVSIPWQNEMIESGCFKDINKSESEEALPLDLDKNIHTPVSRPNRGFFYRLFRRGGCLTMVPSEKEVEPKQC

COc1ccc2c(O[C@@H]3C[C@H]4C(=O)N[C@]5(C(=O)O)CC5/C=C\CCCCC[C@H](NC(=O)OC5CCCC5)C(=O)N4C3)cc(-c3csc(NC(=O)C(C)C)n3)nc2c1C (stereo not given in full) [BI 1230]
inactive: residual activity [1] 94% | residual activity [2] 97% | inhibition [3] 22.1% | residual activity [4] 89% | residual activity [5] 100% | residual activity [6] 84% | residual activity [7] 100% | residual activity [8] 70% | residual activity [9] 86% | residual activity [10] 100% | residual activity [11] 98% | residual activity [12] 100% | residual activity [13] 100% | residual activity [14] 100% | residual activity [15] 100% | residual activity [16] 100% | residual activity [17] 100% | residual activity [18] 100% | residual activity [19] 100% | residual activity [20] 97% | residual activity [21] 100% | residual activity [22] 100% | residual activity [23] 82% | residual activity [24] 89% | residual activity [25] 100% | residual activity [26] 67% | residual activity [27] 71% | residual activity [28] 100% | residual activity [29] 88% | residual activity [30] 93% | residual activity [31] 67% | inhibition [32] 10.2% | residual activity [33] 68% | inhibition [34] 45.8% | residual activity [35] 97% | residual activity [36] 65% | residual activity [37] 97% | residual activity [38] 100% | residual activity [39] 98% | residual activity [40] 100% | residual activity [41] 100% | residual activity [42] 100% | residual activity [43] 96% | residual activity [44] 89% | residual activity [45] 89%

O=C(N[C@H]1CCCCC/C=C\C2C[C@@]2(C(=O)O)NC(=O)[C@@H]2C[C@@H](Oc3ccncc3)CN2C1=O)OC1CCCC1 (stereo not given in full) [BI 1675]
inactive: residual activity [1] 100% | residual activity [2] 100% | inhibition [3] 1.81% | residual activity [4] 89% | residual activity [5] 100% | residual activity [6] 88% | residual activity [7] 79% | residual activity [8] 64% | residual activity [9] 71% | residual activity [10] 95% | residual activity [11] 100% | residual activity [12] 100% | residual activity [13] 100% | residual activity [14] 99% | residual activity [15] 99% | residual activity [16] 100% | residual activity [17] 99% | residual activity [18] 100% | residual activity [19] 100% | residual activity [20] 89% | residual activity [21] 100% | residual activity [22] 79% | residual activity [23] 100% | residual activity [24] 100% | residual activity [25] 93% | residual activity [26] 77% | residual activity [27] 96% | residual activity [28] 100% | residual activity [29] 84% | residual activity [30] 97% | residual activity [31] 80% | inhibition [32] 9.48% | residual activity [33] 100% | inhibition [34] -2.02% | residual activity [35] 100% | residual activity [36] 100% | residual activity [37] 100% | residual activity [38] 100% | residual activity [39] 100% | residual activity [40] 100% | residual activity [41] 100% | residual activity [42] 100% | residual activity [43] 88% | residual activity [44] 96% | residual activity [45] 72%
